Reference: patent US11382907B2, “Methods and compositions for treating aging-associated impairments using CCR3-inhibitors” (Alkahest, Inc., priority 2017, dated 2022)

Assays:
aged C57Bl/6 mice = experiment: Y-maze test in aged mice; assay type: in vivo
Method: A large Y-maze test assesses short-term memory of the familiarity of a specific context. Mice are brought to the experimental room for at least 30 min of acclimation to the experimental room conditions (dim lighting) prior to testing. For the initial training trial, the mouse is placed at the end of one arm of a large Y-maze designated “start arm” (arm length: 15 inches). The third arm of the maze is blocked off, allowing the mouse to explore two of the three arms freely (“start arm” and “familiar arm”) for 5 min. Each arm contains spatial cues. One hour later, the mouse is placed back into the maze in the “start arm” and allowed to explore all three arms with the third arm unblocked (“novel arm”). Movements in and out of each arm are tracked using automated tracking software (CleverSys). Testing is performed under dim lighting, and the apparatus is cleaned with 70% ethanol between trials.
(§1) Two-month-old or 18-month-old C57Bl/6 mice were dosed with either IgG antibody control by IP injection or Compound 1 subcutaneously by Alzet osmotic pump for either 2 or 4 weeks. During the last week of treatment, mice were subjected to behavior testing prior to perfusion on the last day of treatment. All mice received 5 consecutive days of BrdU injection at 150 mg/kg IP immediately prior to treatment start.
as §1, with “Three-month-old” for “Two-month-old”, “16.5-month-old” for “18-month-old”, “vehicle” for “IgG antibody”, “control” for “control by IP injection”, “for” for “for either 2 or”
23-month-old C57Bl/6 mice were dosed with either vehicle control or Compound 1 by oral gavage twice daily for 19 days. After 11 days of treatment, mice were subjected to Y maze testing.
23-month-old C57Bl/6 mice were dosed with either vehicle control or Compound 1 subcutaneously twice daily for 21 days. Three weeks later, mice were subjected to behavior testing, and sacrificed the day following the last behavior test.

[1] = tested on: CD68+ activated microglia; experiment: CD68+ activated microglia after one dose of LPS; assay type: in vivo, C57 mice; conditions: 3-month-old mice; one dose LPS 10 mg/kg IP; 30 mg/kg BID oral gavage 18 days
From the text: Mice were taken down on the day following the end of behavior testing. Anesthesia was induced by 2,2,2-tribromoethanol and mice were subsequently perfused with 0.9% saline trans-cardially. The brains were dissected and cut sagitally in two even halves. One half was snap frozen for later use in dry ice, and the other was fixed in 4% paraformaldehyde in PBS for use in immunohistochemistry. After two days of fixation, the hemibrains were transferred to a 30% sucrose in PBS solution and changed after two days. Hemibrains were sectioned at 30 um on a microtome at −22° C. Brain sections were stored in cryoprotectant media at −20° C. until needed for staining. Blocking was done on free floating sections in the appropriate serum at 10% serum in PBST 0.5%. Primary antibodies were incubated overnight at 4 C. For light microscopy, the following antibodies were used in the given concentrations: DCX, 1:200, Santa Cruz BioTech, CD68, 1:1000. AbD Serotec. Secondary biotinylated antibodies were applied the next day at a concentration of 1:300. Staining visualization was achieved by reaction with the ABC kit (Vector) and diaminobenzidine (Sigma). Dehydration of the mounted slides was achieved using ethanol and xylene dips. Images were acquired on a Leica light microscope at 5× magnification. […]

[2] = 23-month-old mice, 30 mg/kg SQ BID 21 days, tested three weeks later
[3] = 23-month-old mice, 30 mg/kg oral gavage BID, tested after 11 days

Cc1cc(C(=O)N(C)C)cc(NC(=O)[C@H]2CCC(=O)N2C2CCN(Cc3ccc(Cl)c(C)c3)CC2)n1 [Compound 1]
cognitive performance in the cued Y-maze (aged C57Bl/6 mice; 16.5-month-old mice, four-week subcutaneous dosing by pump): improved cognitive performance
performance in the cued Y-maze (aged C57Bl/6 mice; 18-month-old mice, low or high infusion for 2 or 4 weeks): improvement in the cued Y-maze
Y-maze duration of time spent in the novel arm (aged C57Bl/6 mice; [2]): exhibited intact memory for the novel arm
Y-maze number of visits to the novel arm (aged C57Bl/6 mice; [2]): exhibited intact memory for the novel arm
memory in the Y-maze (aged C57Bl/6 mice; [2]): significantly improved memory
velocity during the Y-maze test (aged C57Bl/6 mice; [2]): significantly increased the velocity
Y-maze number of visits to the novel arm (aged C57Bl/6 mice; [3]): exhibited intact memory for the novel arm
distance travelled during the Y-maze test (aged C57Bl/6 mice; [3]): significantly increased the distance travelled
memory in the Y-maze (aged C57Bl/6 mice; [3]): significantly improved memory
CD68+ immunoreactivity (activated microglia) in brain [1]: significantly decreased CD68+ immunoreactivity
